Here are results for 17 compounds from publication PMC9501035, “Synthesis of Novel N-Methylmorpholine-Substituted Benzimidazolium Salts as Potential α-Glucosidase Inhibitors” (Molecules, 2022).

Molecules are shown by their SMILES. Values joined by “and” are separate entries in the source; they are usually repeats but may differ in a detail not shown here. Equal entries are not always repeated. Where two headings read alike, the source gives them in different places.

Experiment [1] concerns the target α-glucosidase. Particulars: cited from earlier work.
Experiment [2] addresses α-glucosidase. The experiment is described as follows: In vitro α-glucosidase inhibition (spectroscopic method). Particulars: means of experiments, n = 3. Type of experiment: biochemical. As to the method:
α-Glucosidase inhibitions were determined following a modified spectroscopic method. The detailed protocol was already reported. Each experiment was carried out thrice, and percentage inhibitions were determined with the help of the following expression, followed by the determination of IC50 values:% Inhibition = [(Acontrol − Asample)/Acontrol] × 100 where ‘A’ stands for absorbance.

Where [3] appears, read: structural hybrids with piperazine and morpholine.

Regarding `Oc1ccc(-c2nc3cc(N4CCOCC4)ccc3[nH]2)cc1` [IV X=O], the IC50 (commonly the concentration at which inhibition is half-maximal) on α-glucosidase [1] (setting [3]) is 3.4 ± 0.86 µM.

`O=C(C[n+]1c(CN2CCOCC2)n(Cc2ccccc2)c2ccccc21)Nc1ccc(Cl)cc1` [Compound 5b, 1-Benzyl-3-(2-((4-chlorophenyl)amino)-2-oxoethyl)-2-(morpholinomethyl)-1H-benzo[d]imidazol-3-ium chloride] yielded an IC50 against α-glucosidase [2] of 35 ± 0.02 µM. Same read-out and setting: the result for `O=C(C[n+]1c(CN2CCOCC2)n(Cc2ccccc2)c2ccccc21)Nc1ccccc1Br` [Compound 5c, 1-Benzyl-3-(2-((2-bromophenyl)amino)-2-oxoethyl)-2-(morpholinomethyl)-1H-benzo[d]imidazol-3-ium chloride] reads 55 ± 0.14 µM; that for `O=C(C[n+]1c(CN2CCOCC2)n(Cc2ccccc2)c2ccccc21)Nc1ccccc1` [Compound 5m, 1-Benzyl-2-(morpholinomethyl)-3-(2-oxo-2-(phenylamino)ethyl)-1H-benzo[d]imidazol-3-ium chloride], 110 ± 0.113 µM. `COc1ccc(/C(CSc2nc3ccccc3[nH]2)=N\N=C\c2ccc(OC)cc2O)cc1` [I]: at α-glucosidase [1] (benzimidazole-bearing Schiff bases), the half-inhibitory concentration (IC50) is 2.2 ± 0.1 µM. On to `Cc1ccc(NC(=O)C[n+]2c(CN3CCOCC3)n(Cc3ccccc3)c3ccccc32)cc1` [Compound 5j, 1-Benzyl-3-(2-((4-methylphenyl)amino)-2-oxoethyl)-2-(morpholinomethyl)-1H-benzo[d]imidazol-3-ium chloride], for which the IC50 on α-glucosidase [2] is 88 ± 0.08 µM. For the compound `Cc1ccccc1NC(=O)C[n+]1c(CN2CCOCC2)n(Cc2ccccc2)c2ccccc21` [Compound 5h, 1-Benzyl-3-(2-((2-methylphenyl)amino)-2-oxoethyl)-2-(morpholinomethyl)-1H-benzo[d]imidazol-3-ium chloride], half-maximal inhibition against α-glucosidase [2] (IC50) was put at 21 ± 0.076 µM. Regarding `O=C(c1ccccc1)c1ccc2nc(-c3ccc(O)cc3)[nH]c2c1` [II], the IC50 at α-glucosidase [1] (benzoylarylbenzimidazoles) is 11.02 ± 0.04 µM.

In turn, `O=C(C[n+]1c(CN2CCOCC2)n(Cc2ccccc2)c2ccccc21)Nc1ccc(Br)cc1` [Compound 5d, 1-Benzyl-3-(2-((4-bromophenyl)amino)-2-oxoethyl)-2-(morpholinomethyl)-1H-benzo[d]imidazol-3-ium chloride] came in with a 50% inhibitory concentration (IC50) at α-glucosidase [2] of 15 ± 0.03 µM.

As to `COc1ccccc1NC(=O)C[n+]1c(CN2CCOCC2)n(Cc2ccccc2)c2ccccc21` [Compound 5k, 1-Benzyl-3-(2-((2-methoxyphenyl)amino)-2-oxoethyl)-2-(morpholinomethyl)-1H-benzo[d]imidazol-3-ium chloride], the half-maximal inhibitory concentration (IC50) at α-glucosidase [2] is 26 µM and 25 µM. `O=C(C[n+]1c(CN2CCOCC2)n(Cc2ccccc2)c2ccccc21)Nc1ccccc1Cl` [Compound 5a, 1-Benzyl-3-(2-((2-chlorophenyl)amino)-2-oxoethyl)-2-(morpholinomethyl)-1H-benzo[d]imidazol-3-ium chloride] showed a half-maximal inhibitory concentration (IC50) on α-glucosidase [2] of 50 ± 0.04 µM. Consider `CN1CCN(c2ccc3[nH]c(-c4ccc(O)cc4)nc3c2)CC1` [IV X=NMe], for which the IC50 on α-glucosidase [1] (setting [3]) was 2.25 ± 0.28 µM. `O=C(C[n+]1c(CN2CCOCC2)n(Cc2ccccc2)c2ccccc21)Nc1cccc([N+](=O)[O-])c1` [Compound 5f, 1-Benzyl-3-(2-((3-nitrophenyl)amino)-2-oxoethyl)-2-(morpholinomethyl)-1H-benzo[d]imidazol-3-ium chloride] displayed a 50% inhibitory concentration (IC50) at α-glucosidase [2] of 19 ± 0.06 µM.

On to `O=C(C[n+]1c(CN2CCOCC2)n(Cc2ccccc2)c2ccccc21)Nc1ccccc1[N+](=O)[O-]` [Compound 5e, 1-Benzyl-3-(2-((2-nitrophenyl)amino)-2-oxoethyl)-2-(morpholinomethyl)-1H-benzo[d]imidazol-3-ium chloride], for which it took 30 ± 0.11 µM to reach half-maximal inhibition on α-glucosidase [2] (IC50). The same measure, in the same setting: the result for `Cc1cccc(NC(=O)C[n+]2c(CN3CCOCC3)n(Cc3ccccc3)c3ccccc32)c1` [Compound 5i, 1-Benzyl-3-(2-((3-methylphenyl)amino)-2-oxoethyl)-2-(morpholinomethyl)-1H-benzo[d]imidazol-3-ium chloride] reads 47 ± 0.05 µM; that for `O=C(C[n+]1c(CN2CCOCC2)n(Cc2ccccc2)c2ccccc21)Nc1ccc([N+](=O)[O-])cc1` [Compound 5g, 1-Benzyl-3-(2-((4-nitrophenyl)amino)-2-oxoethyl)-2-(morpholinomethyl)-1H-benzo[d]imidazol-3-ium chloride], 25 ± 0.106 µM; that for `COc1ccc(NC(=O)C[n+]2c(CN3CCOCC3)n(Cc3ccccc3)c3ccccc32)cc1` [Compound 5l, 1-Benzyl-3-(2-((4-methoxyphenyl)amino)-2-oxoethyl)-2-(morpholinomethyl)-1H-benzo[d]imidazol-3-ium chloride], 65 ± 0.015 µM.
